ChEMBL document CHEMBL1143748, “'Bridged' stilbene derivatives as selective cyclooxygenase-1 inhibitors” (Bioorg Med Chem, 2007)

What was measured:
[1] = target: T1, Prostaglandin G/H synthase 2 (Homo sapiens, UniProt P35354); test: Inhibition of human recombinant COX2 by measuring PGE2
T1 sequence (P35354 whole entry): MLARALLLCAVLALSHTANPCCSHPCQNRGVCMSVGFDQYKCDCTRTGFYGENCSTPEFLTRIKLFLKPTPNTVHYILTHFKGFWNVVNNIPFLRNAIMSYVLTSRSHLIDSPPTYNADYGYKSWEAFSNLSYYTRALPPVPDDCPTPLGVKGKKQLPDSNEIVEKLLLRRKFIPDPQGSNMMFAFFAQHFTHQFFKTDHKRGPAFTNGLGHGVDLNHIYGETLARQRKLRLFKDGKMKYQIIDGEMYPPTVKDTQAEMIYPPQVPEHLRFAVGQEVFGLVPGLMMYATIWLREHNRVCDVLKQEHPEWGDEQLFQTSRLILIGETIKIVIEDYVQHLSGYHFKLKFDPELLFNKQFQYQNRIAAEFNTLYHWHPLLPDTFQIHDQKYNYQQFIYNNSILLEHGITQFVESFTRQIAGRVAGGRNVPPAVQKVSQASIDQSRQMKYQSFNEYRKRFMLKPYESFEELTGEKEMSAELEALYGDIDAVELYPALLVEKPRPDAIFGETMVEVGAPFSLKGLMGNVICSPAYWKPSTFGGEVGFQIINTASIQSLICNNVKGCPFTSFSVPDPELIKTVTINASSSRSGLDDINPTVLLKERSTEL

[2] = Selectivity for ovine COX1 over human recombinant COX2
[3] = target: T2, Prostaglandin G/H synthase 1 (Ovis aries, UniProt P05979); test: Inhibition of ovine COX1 by measuring PGE2
T2 sequence (P05979 whole entry): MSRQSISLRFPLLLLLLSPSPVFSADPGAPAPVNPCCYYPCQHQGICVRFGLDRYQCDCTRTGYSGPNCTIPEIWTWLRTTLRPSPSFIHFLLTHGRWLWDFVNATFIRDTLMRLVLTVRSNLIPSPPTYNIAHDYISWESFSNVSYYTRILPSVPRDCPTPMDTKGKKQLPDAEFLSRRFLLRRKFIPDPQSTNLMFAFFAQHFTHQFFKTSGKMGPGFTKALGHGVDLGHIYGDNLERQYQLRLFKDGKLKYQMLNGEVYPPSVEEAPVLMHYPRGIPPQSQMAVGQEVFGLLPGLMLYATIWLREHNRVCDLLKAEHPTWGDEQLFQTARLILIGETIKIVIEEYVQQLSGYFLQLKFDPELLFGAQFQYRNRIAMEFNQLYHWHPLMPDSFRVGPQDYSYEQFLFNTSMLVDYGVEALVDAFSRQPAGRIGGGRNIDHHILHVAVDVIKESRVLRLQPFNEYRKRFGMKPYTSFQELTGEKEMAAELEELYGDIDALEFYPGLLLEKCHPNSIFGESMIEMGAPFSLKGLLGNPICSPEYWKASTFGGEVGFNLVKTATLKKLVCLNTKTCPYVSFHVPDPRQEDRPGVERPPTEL

[4] = Relaxing effect on guinea pig arteria pulmonalis ring assessed as reduction of force of contraction at 100 uM; assay type: functional, Cavia porcellus; parameters: scale not given: the % may be the effect or the level left
Ileum = test: Relaxing effect on guinea pig terminal ileum ring assessed as reduction of force of contraction at 100 uM; assay type: functional, Cavia porcellus; parameters: scale not given: the % may be the effect or the level left
Aorta = test: Relaxing effect on guinea pig aorta ring assessed as reduction of force of contraction at 100 uM; assay type: functional, Cavia porcellus; parameters: scale not given: the % may be the effect or the level left

IC50 [1] [nM]	Ratio IC50 [2]	IC50 [3] [nM]	SMILES	Activity [4] [%]	Activity (Ileum) [%]	Activity (Aorta) [%]
> 100000	> 6670	15	COc1ccc2c(c1)CCC(c1ccc(OC)c(OC)c1OC)=C2	–	–	–
1330	44.3	30	COc1ccc(C2=Cc3ccccc3C2)c(OC)c1OC	-11.92	-35.94	-3.45
> 100000	–	> 100000	C1=C(c2ccc3c(c2)OCO3)CCc2ccccc21	–	–	–
62300	135	460	COc1ccccc1C1=Cc2ccccc2C1	-26.08	-40.89	-35.72
660	1.38	480	COc1ccc(C2=Cc3ccccc3CC2)c(OC)c1OC	–	–	–
> 100000	> 7.8	12800	C1=C(c2ccc3c(c2)OCO3)Cc2ccccc21	-19.82	-51.74	-28.08
> 100000	> 1.63	61100	COc1ccc(C2=Cc3ccccc3CC2)cc1OC	-41.45	-45.34	-15.97

SMILES	IC50 [1] [nM]	Ratio IC50 [2]	IC50 [3] [nM]	Activity [4] [%]	Activity (Ileum) [%]	Activity (Aorta) [%]
COc1ccc2c(c1)CCC(c1ccc(OC)c(OC)c1)=C2	30	0.079	380	–	–	–
Oc1ccc(/C=C/c2cc(O)cc(O)c2)cc1 [RESVERATROL]	–	–	535	-53.56	-64.77	-55.15
